Assay results reported in patent publication US7098215B2, “Nitrogenous compounds and antiviral drugs containing the same” (Kureha Chemical Industry Co., Ltd., priority 2000, dated 2006).

Each compound was assayed on ICR male mice (assay: Acute toxicity in ICR mice, intraperitoneal administration). Details: 3 per group, 50 mg/kg intraperitoneally, twice a day, for four days, number of dead animals after 5 days.
Assay type: in vivo
Experimental: Acute toxicity of the antiviral drug was examined. Three groups of 7 week-old, ICR male mice, each group consisting of 3 mice, were bred for one week. The compounds prepared in the Examples, dissolved in a physiological saline solution or distilled water, were intraperitoneally administered at a dose of 50 mg/kg, twice a day, for four days. After 5 days, the number of dead animals was examined.
For `O=C(N[C@@H](CCCNC1CCCc2cccnc21)C(=O)NCc1cccc2ccccc12)c1ccc(CNCc2ncc[nH]2)cc1` (stereo partly drawn) [Compound No. 39, (2S)-2-(4-((N-imidazol-2-ylmethyl)aminomethyl)benzoylamino)-5-(5,6,7,8-tetrahydroquinolin-8-ylamino)valeric acid 1-naphthalenemethylamide], the Dead mouse was 0/3.
`Cn1ccnc1CNCc1ccc(C(=O)N[C@@H](CCCNC2CCCc3cccnc32)C(=O)NCc2cccc3ccccc23)cc1` (stereo partly drawn) [Compound No. 96, (2S)-2-((1-methylimidazol-2-ylmethyl)aminomethyl)benzoylamino-5-(5,6,7,8-tetrahydroquinolyl-8-yl)aminovaleric acid 1-naphthalenemethyleneamide] was tested, and the Dead mouse was 0/3.
In the case of `C[C@H](NC(=O)[C@H](CCCNC(=N)N)NC(=O)c1ccc(CNCc2nccn2C)c2ccccc12)c1cccc2ccccc12` [Compound No. 97, N^α-(4-((N-(1-methylimidazole-2-ylmethyl)amino)methyl)naphthalene-1-carbonyl)-L-arginine (1′S)-1′-(1-naphthyl)ethylamide], the Dead mouse is reported as 0/3.
`O=C(N[C@@H](CCCNC1CCCc2cccnc21)C(=O)NCCc1c[nH]c2ccccc12)c1ccc(CNCc2ccccn2)c2ccccc12` (stereo partly drawn) [Compound No. 92, (2S)-2-(4-(N-2-picolylaminomethyl)naphthoyl)amino-5-(5,6,7,8-tetrahydroquinolin-8-yl)aminovaleric acid 2-(3-indolyl)ethylamide] was tested, and the Dead mouse was 0/3.
In the case of `C[C@H](NC(=O)[C@H](CCCNC(=N)N)NC(=O)c1ccc(CNCc2ccccn2)c2ccccc12)c1cccc2ccccc12` [Compound No. 99, N^α-(4-(N-2-picolylaminomethyl)naphthoyl)-L-arginine (1′S)-1′-(1-naphthyl)ethylamide], the Dead mouse is reported as 0/3.

The compounds below were run on HIV-1IIIB infected MT-4 cells (assay: Anti-HIV activity: protection of HIV-1IIIB infected MT-4 cells, MTT method). Details: MOI 0.01, culture for 5 days, concentration inhibiting 50% of cytotoxicity due to HIV infection.
Assay type: cell-based
Experimental: HIV-1IIIB infected MT-4 cells were added to 96-well microtiter plates (3.0×10^4/well, MOI (Multiplicity of infection): 0.01), together with test compounds at different concentrations immediately after the infection. After culture for 5 days in a carbon dioxide incubator at 37° C., the number of surviving cells was counted by MTT (tetrazolium) method (Pawels et al., J. Virol. Methods, 20, 309-321, 1988).
For `O=C(N[C@@H](CCCNC1CCCc2cccnc21)C(=O)NCc1cccc2ccccc12)c1ccc(CNC2CCCc3cccnc32)cc1` (stereo partly drawn) [Compound No. 64, (2S)-2-(4-((5,6,7,8-tetrahydroquinolin-8-yl)aminomethyl)benzoylamino)-5-((5,6,7,8-tetrahydroquinolin-8-yl)amino)valeric acid 1-naphthalenemethylamide], the EC50 was 114 nM.
In the case of `C[C@H](NC(=O)[C@H](CCCNC1=NCCN1)NC(=O)c1ccc(CNCc2ncc[nH]2)cc1)c1cccc2ccccc12` [Compound No. 110, (S)-2-(4-((N-imidazol-2-ylmethyl)aminomethyl)benzoyl)amino-5-(4,5-dihydroimidazol-2-yl)aminovaleric acid (1′S)-1′-(1-naphthyl)ethylamide], the EC50 is reported as 344 nM.
With `O=C(N[C@@H](CCCNCc1ccccn1)C(=O)NCc1cccc2ccccc12)c1ccc(CNCc2ccccn2)cc1` [Compound No. 60, (S)-2-(4-(N-2-picolylaminomethyl)benzoylamino)-5-(N-2-picolylamino)valeric acid 1-naphthalenemethylamide] the EC50 was 158 nM.
`C[C@H](NC(=O)[C@H](CCCNC(=N)N)NC(=O)c1ccc(CNCc2ncc[nH]2)cc1)c1cccc2ccccc12` [Compound No. 95, N^α-4-(N-2-(imidazol-2-ylmethyl)aminomethyl)benzoyl-L-arginine (1′S)-1′-(1-naphthyl)ethylamide] showed an EC50 of 175 nM.
Work on `O=C(N[C@@H](CCCNC1CCCc2cccnc21)C(=O)NCc1cccc2ccccc12)c1ccc(CNCc2ncc[nH]2)s1` (stereo partly drawn) [Compound No. 16, (2S)-2-(5-(N-(imidazol-2-ylmethyl)aminomethyl)thiophene-2-carbonylamino)-5-(5,6,7,8-tetrahydroquinolin-8-yl)aminovaleric acid 1-naphthalenemethylamide] yielded an EC50 of 633 nM.
`Cn1ccnc1CNCc1ccc(C(=O)N[C@@H](CCCNC2CCCc3cccnc32)C(=O)NCc2cccc3ccccc23)cc1` (stereo partly drawn) [Compound No. 96, (2S)-2-((1-methylimidazol-2-ylmethyl)aminomethyl)benzoylamino-5-(5,6,7,8-tetrahydroquinolyl-8-yl)aminovaleric acid 1-naphthalenemethyleneamide] was tested, and the EC50 was 34 nM.
In the case of `O=C(N[C@@H](CCNCc1ccccn1)C(=O)NCc1cccc2ccccc12)c1ccc(CNCc2ccccn2)cc1` [Compound No. 61, (S)-2-(4-(N-2-picolylamino)methylbenzoylamino)-4-(N-2-picolylamino)butyric acid 1-naphthalenemethylamide], the EC50 is reported as 2620 nM.
In the case of `N=C(N)NCCC[C@H](NC(=O)c1ccc(CNCc2ccccn2)c2ccccc12)C(=O)NCc1cccc2ccccc12` [Compound No. 44, N^α-(4-(N-2-picolylaminomethyl)naphthoyl)-L-arginine 1-naphthalenemethylamide], the EC50 is reported as 126 nM.
Compound `Cn1cccc1CNCCC[C@H](NC(=O)c1ccc(CNCc2nccn2C)cc1)C(=O)NCc1cccc2ccccc12` [Compound No. 30, (S)-2-(4-((1-methylimidazol-2-ylmethyl)aminomethyl)benzoylamino)-5-((1-methylpyrrol-2-ylmethyl)amino)valeric acid 1-naphthalenemethylamide] has an EC50 of 662 nM.
`C[C@H](NC(=O)[C@H](CCCNC1CCCc2cccnc21)NC(=O)c1ccc(CNCc2ccccn2)c2ccccc12)c1cccc2ccccc12` (stereo partly drawn) [Compound No. 85, (2S)-2-(4-(N-2-picolylaminomethyl)naphthoyl)amino-5-(5,6,7,8-tetrahydroquinolin-8-yl)aminovaleric acid (1′S)-1′-(1-naphthyl)ethylamide] was tested, and the EC50 was 29 nM.
For `O=C(N[C@@H](CCCNCc1ncc[nH]1)C(=O)NCc1cccc2ccccc12)c1ccc(CNCc2ncc[nH]2)cc1` [Compound No. 21, (S)-2-(4-((imidazol-2-ylmethyl)aminomethyl)benzoylamino)-5-((imidazol-2-ylmethyl)amino)valeric acid 1-naphthalenemethylamide], the EC50 was 828 nM.
Work on `C[C@H](NC(=O)[C@H](CCCNC1CCCc2cccnc21)NC(=O)c1ccc(CNCc2ccccn2)cc1)c1cccc2ccccc12` (stereo partly drawn) [Compound No. 91, (2S)-2-(4-(N-2-picolylaminomethyl)benzoyl)amino-5-(5,6,7,8-tetrahydroquinolin-8-yl)aminovaleric acid (1′S)-1′-(1-naphthyl)ethylamide] yielded an EC50 of 138 nM.
For `Cn1cccc1CNCCC[C@H](NC(=O)c1ccc(CNCc2ccccn2)cc1)C(=O)NCc1cccc2ccccc12` [Compound No. 5, (S)-2-(4-(N-2-picolylaminomethyl)benzoylamino)-5-((1-methylpyrrol-2-ylmethyl)amino)valeric acid 1-naphthalenemethylamide], the EC50 was 804 nM.
Work on `C[C@H](NC(=O)[C@H](CCCNC1=NCCCN1)NC(=O)c1ccc(CNCc2ncc[nH]2)cc1)c1cccc2ccccc12` [Compound No. 112, (S)-2-(4-((N-imidazol-2-ylmethyl)aminomethyl)benzoyl)amino-5-(3,4,5,6-tetrahydropyrimidine-2-yl)aminovaleric acid (1′S)-1′-(1-naphthyl)ethylamide] yielded an EC50 of 880 nM.
For `NC(N)=NCCC[C@H](NC(=O)c1ccc(CNCc2ccccn2)cc1)C(=O)NCc1cccc2ccccc12` [Compound No. 43, N^α-(4-(N-2-picolylaminomethyl)benzoyl)-L-arginine 1-naphthalenemethylamide], the EC50 was 118 nM.
`C[C@H](NC(=O)[C@H](CCCNC1CCCc2cccnc21)NC(=O)c1ccc(CNCc2ccccn2)nc1)c1cccc2ccccc12` (stereo partly drawn) [Compound No. 83, (2S)-2-(2-(N-2-picolylaminomethyl)pyridin-5-ylcarbonyl)amino-5-(5,6,7,8-tetrahydroquinolin-8-yl)aminovaleric acid (1′S)-1′-(1-naphthyl)ethylamide] showed an EC50 of 121 nM.
Work on `N=C(N)NCCC[C@H](NC(=O)c1ccc(CNCc2ncc[nH]2)cc1)C(=O)NCc1cccc2ccccc12` [Compound No. 53, N^α-(4-(imidazol-2-ylmethyl)aminomethylbenzoyl)-L-arginine 1-naphthalenemethylamide] yielded an EC50 of 150 nM.
